Laboratory results reported in publication PMC13065040 (PLOS One, 2026).
Values joined by “and” are separate entries in the source; they are usually repeats but may differ in a detail not shown here. Equal entries are not always repeated. Where a SMILES comes first, the peptide text is derived from it. Bridges are numbered along the chain shown (N, C = ends).

How the values were obtained:
Neuropilin-1 (NRP-1) = biological target: T1, Neuropilin-1 (NRP-1) (Homo sapiens, UniProt O14786); experiment: Surface plasmon resonance (SPR), immobilized NRP-1; format: binding; conditions: NTA chip, steady-state affinity model, pH 7.4, n = 3, 4 replicates, read-out: dissociation constant (KD) for NRP-1
T1 construct: containing amino acid residues Phe22-Lys644, with a poly-histidine tag at the C-terminus; purchased ACROBiosystems NR1-H5228
T1 sequence (O14786 22-644 isoform O14786-2): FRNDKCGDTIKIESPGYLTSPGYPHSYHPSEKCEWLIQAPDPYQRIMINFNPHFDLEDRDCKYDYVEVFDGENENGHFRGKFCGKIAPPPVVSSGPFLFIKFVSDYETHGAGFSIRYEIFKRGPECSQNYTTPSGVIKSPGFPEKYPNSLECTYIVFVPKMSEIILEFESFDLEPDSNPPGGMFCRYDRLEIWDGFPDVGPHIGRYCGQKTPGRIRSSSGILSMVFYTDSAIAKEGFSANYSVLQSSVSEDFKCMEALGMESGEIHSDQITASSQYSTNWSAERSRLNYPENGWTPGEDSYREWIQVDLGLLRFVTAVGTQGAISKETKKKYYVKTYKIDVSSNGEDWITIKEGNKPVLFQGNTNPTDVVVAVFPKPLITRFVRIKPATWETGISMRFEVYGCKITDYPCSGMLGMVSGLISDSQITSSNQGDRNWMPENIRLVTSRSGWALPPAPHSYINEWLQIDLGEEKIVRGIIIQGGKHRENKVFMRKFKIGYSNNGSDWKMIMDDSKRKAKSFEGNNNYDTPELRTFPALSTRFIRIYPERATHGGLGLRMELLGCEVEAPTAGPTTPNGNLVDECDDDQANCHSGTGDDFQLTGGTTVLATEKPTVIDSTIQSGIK
Description: Surface plasmon resonance (SPR) reagents, plates, and the NTA chip were purchased from GE Healthcare Life Sciences, now Cytiva (Marlborough, MA, USA). Measurements were performed using the Biacore 8000 SPR System (Marlborough, MA. USA). The running buffer used for protein immobilization and peptide binding consisted of 20 mM Tris, 150 mM NaCl, […] and 0.0005% Tween-20, adjusted to pH 7.4. MMP-2 and NRP-1 were immobilized onto the NTA chip at 15 nM and 25 nM concentration, respectively. Peptides were injected over the immobilized proteins using two-fold serial dilutions from 500 µM to 3.90 µM. Three experiments with four replicates of each were performed. The SPR response curves generated from the Biacore Insight Evaluation Software were fitted to a steady-state affinity model to obtain an equilibrium dissociation constant (KD) for each peptide — protein interaction.

MMP-2 [1] = biological target: T2, MMP-2 (Homo sapiens, UniProt P08253); experiment: Differential scanning fluorimetry (DSF); format: binding; design: Dtm (ΔTm): unit not given here; conditions: for Dtm (ΔTm), average: average of replicates
T2 construct: ProSpec Bio; Antibodies-Online; Elabscience; Abcam ENZ-769; ABIN7400042; PKSH033450
T2 sequence (P08253 110-660): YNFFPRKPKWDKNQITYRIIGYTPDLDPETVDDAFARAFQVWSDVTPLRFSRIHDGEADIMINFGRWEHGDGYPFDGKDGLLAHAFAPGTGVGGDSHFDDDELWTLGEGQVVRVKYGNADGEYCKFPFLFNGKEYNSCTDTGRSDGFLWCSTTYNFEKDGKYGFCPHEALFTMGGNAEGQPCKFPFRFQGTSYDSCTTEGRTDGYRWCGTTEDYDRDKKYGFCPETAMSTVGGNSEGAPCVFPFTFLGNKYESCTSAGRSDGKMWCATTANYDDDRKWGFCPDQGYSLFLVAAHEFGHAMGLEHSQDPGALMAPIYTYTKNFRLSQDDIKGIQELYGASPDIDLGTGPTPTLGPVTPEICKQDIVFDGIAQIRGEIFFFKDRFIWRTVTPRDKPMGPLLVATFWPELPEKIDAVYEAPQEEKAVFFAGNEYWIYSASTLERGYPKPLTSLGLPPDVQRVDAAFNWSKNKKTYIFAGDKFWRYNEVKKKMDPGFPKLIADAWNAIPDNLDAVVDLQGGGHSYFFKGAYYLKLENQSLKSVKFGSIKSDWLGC
Description: The melting temperatures (Tm) of recombinant MMP-2 and its complexes with peptides were ascertained using BioRad CFX384 Touch real-time PCR (Hercules, CA, USA). The experiments were performed as previously described. The unfolding of the protein was detected using the fluorescent SYPRO-orange dye (Invitrogen, Carlsbad, CA, USA). MMP-2 and prospective ligand peptides were dissolved in 7.1 pH phosphate buffered saline (154 mM NaCl, 5.6 mM Na2PO4, 1.1 mM KH2PO4), and the reaction mixture was made to a final concentration of 1 µM of protein, either 30 µM ([…]) of peptide, and 1000x dilution of the SYPRO-Orange dye stock from the manufacturer. Excitation and emission filters of the dye were set at 450 − 490 nm and 560 − 580 nm, respectively. The temperature for the reaction was held at 25 °C for 5 min, and then a gradient of 25 °C to 95 °C was applied at a rate of 0.3 °C/min, and the fluorescence was recorded. To determine Tm of the protein, the first derivatives of melting curves were plotted using GraphPad Prism software, version 10.0.3.

MMP-2 [2] = biological target: T3, MMP-2 (Homo sapiens, UniProt P08253); experiment: MMP-2 inhibition assay (Enzo kit, OmniMMP RED fluorogenic substrate); format: biochemical
T3 construct: purchased Enzo Life Sciences (MMP-2 drug discovery kit)
Description: The MMP-2 inhibition assay was performed using the Enzo Life Sciences MMP-2 drug discovery kit. and the quenched fluorogenic substrate OmniMMP RED. Reference substrate was diluted to a final concentration of 5 μM, while the MMP-2 enzyme was diluted to 58 mU/µL, and the N-Isobutyl-N-(4-methoxyphenylsulfonyl)glycyl hydroxamic acid (NNGH) inhibitor was diluted to a concentration of 1/200 in assay buffer. […] The assay was performed using a black 96-well microplate. Fluorescence was measured at excitation/emission wavelengths of 545/576 nm, with a cutoff at 570 nm using Gen5 microplate reader (BioTeK, Shoreline, WA). Baseline fluorescence was recorded before adding NNGH inhibitor which was used as a positive control for MMP-2 inhibition. Reaction mixtures in the plate were incubated at 37 °C for 10 min, and fluorescence was measured at 10 min intervals for the first 30 min, then at 30 min intervals until 2 h had elapsed. […] Statistical analysis was performed using ANOVA with GraphPad Prism software, version 10.0.3.

[3] = peptide 30, P75/P76 experiment 1, replicate 1
[4] = peptide 30, P75/P76 experiment 1, replicate 2
[5] = peptide 30, P75/P76 experiment 1, replicate 3
[6] = peptide 30, P75/P76 experiment 2, replicate 1
[7] = peptide 30, P75/P76 experiment 2, replicate 2
[8] = peptide 30, P75/P76 experiment 2, replicate 3
[9] = peptide 30, P75/P76 experiment 3, replicate 1
[10] = peptide 30, P75/P76 experiment 3, replicate 2
[11] = peptide 30, P75/P76 experiment 3, replicate 3
[12] = peptide 50, P75/P76 experiment 1, replicate 2
[13] = peptide 50, P75/P76 experiment 1, replicate 3
[14] = peptide 50, P75/P76 experiment 2, replicate 1
[15] = peptide 50, P75/P76 experiment 2, replicate 2
[16] = peptide 50, P75/P76 experiment 2, replicate 3
[17] = peptide 50, P75/P76 experiment 3, replicate 1
[18] = peptide 50, P75/P76 experiment 3, replicate 2
[19] = peptide 50, P75/P76 experiment 3, replicate 3

CC(=O)N[C@@H](CCCCN)C(=O)N[C@H]1CSSC[C@@H](C(=O)N[C@@H](CC(C)C)C(N)=O)NC(=O)[C@H](CCC(N)=O)NC(=O)[C@@H]2CCCN2C(=O)CNC(=O)[C@H](Cc2ccc(O)cc2)NC1=O [P78, Ac-[Cyc(28,33)]Ctx(27–34)-NH2] (Ac-KCYGPQCL-NH2; disulfide 2-7)
Kd (Neuropilin-1 (NRP-1)): 267 ± 103 µM

CC(=O)NCC(=O)N[C@@H](CCCNC(=N)N)C(=O)NCC(=O)N[C@@H](CCCCN)C(=O)N[C@H]1CSSC[C@@H](C(=O)N[C@@H](CC(C)C)C(=O)N[C@@H](CO)C(=O)N[C@@H](CCCNC(=N)N)C(N)=O)NC(=O)[C@H](CCC(N)=O)NC(=O)[C@@H]2CCCN2C(=O)CNC(=O)[C@H](Cc2ccc(O)cc2)NC1=O [P75, Ac-[Ser^35,Cyc(28,33)]Ctx(24–36)-NH2] (Ac-GRGKCYGPQCLSR-NH2; disulfide 5-10)
Dtm (ΔTm) (MMP-2 [1]; [3]): 1.067 | Dtm (ΔTm) (MMP-2 [1]; [4]): 1.067 | Dtm (ΔTm) (MMP-2 [1]; [5]): 1.367 | Dtm (ΔTm) (MMP-2 [1]; [6]): 0.6 | Dtm (ΔTm) (MMP-2 [1]; [7]): 0.6 | Dtm (ΔTm) (MMP-2 [1]; [8]): 0.6 | Dtm (ΔTm) (MMP-2 [1]; [9]): 0.2 | Dtm (ΔTm) (MMP-2 [1]; [10]): -0.4 | Dtm (ΔTm) (MMP-2 [1]; [11]): -0.1 | Dtm (ΔTm), average (MMP-2 [1]; peptide 50 (µM per method)): 0.7556 | Kd (Neuropilin-1 (NRP-1)): 330 ± 146 µM

Ac-[Cys^26,Ser^28,33,Cyc(26,35)]Ctx(24–36)-NH2 [P76]
ΔTm ± SD, change in melting temperature of MMP-2 (MMP-2 [1]; 1 µM MMP-2, 30 µM (Ctx) or 50 µM (P75 and P76) peptide, PBS pH 7.1, SYPRO-Orange, average and SD of n ≥ 3, SD): 0.63 ± 0.36 °C | Dtm (ΔTm), average (MMP-2 [1]; peptide 30 (µM per method)): 0.6556 | Dtm (ΔTm) (MMP-2 [1]; [3]): -0.7333 | Tm of MMP-2 with peptide (MMP-2 [1]; [3]): 45.7 °C | Dtm (ΔTm) (MMP-2 [1]; [4]): -0.4333 | Tm of MMP-2 with peptide (MMP-2 [1]; [4]): 46 °C | Dtm (ΔTm) (MMP-2 [1]; [5]): 0.1667 | Tm of MMP-2 with peptide (MMP-2 [1]; [5]): 46.6 °C | Dtm (ΔTm) (MMP-2 [1]; [6]): 1.8 | Tm of MMP-2 with peptide (MMP-2 [1]; [6]): 48.7 °C | Dtm (ΔTm) (MMP-2 [1]; [7]): 1.5 | Tm of MMP-2 with peptide (MMP-2 [1]; [7]): 48.4 °C | Dtm (ΔTm) (MMP-2 [1]; [8]): 1.8 | Tm of MMP-2 with peptide (MMP-2 [1]; [8]): 48.7 °C | Dtm (ΔTm) (MMP-2 [1]; [9]): 0.5 | Tm of MMP-2 with peptide (MMP-2 [1]; [9]): 47.8 °C | Dtm (ΔTm) (MMP-2 [1]; [10]): 0.5 | Tm of MMP-2 with peptide (MMP-2 [1]; [10]): 47.8 °C | Dtm (ΔTm) (MMP-2 [1]; [11]): 0.8 | Tm of MMP-2 with peptide (MMP-2 [1]; [11]): 48.1 °C | Dtm (ΔTm), average (MMP-2 [1]; peptide 50 (µM per method)): 0.6222 | Tm of MMP-2 with peptide (MMP-2 [1]; peptide 50, P75/P76 experiment 1, replicate 1): 47.8 °C | Dtm (ΔTm) (MMP-2 [1]; [12]): 0.6 | Tm of MMP-2 with peptide (MMP-2 [1]; [12]): 47.8 °C | Dtm (ΔTm) (MMP-2 [1]; [13]): 0.6 | Tm of MMP-2 with peptide (MMP-2 [1]; [13]): 47.8 °C | Dtm (ΔTm) (MMP-2 [1]; [14]): 0.5 | Tm of MMP-2 with peptide (MMP-2 [1]; [14]): 47.4 °C | Dtm (ΔTm) (MMP-2 [1]; [15]): 1.2 | Tm of MMP-2 with peptide (MMP-2 [1]; [15]): 48.1 °C | Dtm (ΔTm) (MMP-2 [1]; [16]): 1.2 | Tm of MMP-2 with peptide (MMP-2 [1]; [16]): 48.1 °C | Dtm (ΔTm) (MMP-2 [1]; [17]): 0.2 | Tm of MMP-2 with peptide (MMP-2 [1]; [17]): 47.5 °C | Dtm (ΔTm) (MMP-2 [1]; [18]): 0.5 | Tm of MMP-2 with peptide (MMP-2 [1]; [18]): 47.8 °C | Dtm (ΔTm) (MMP-2 [1]; [19]): 0.2 | Tm of MMP-2 with peptide (MMP-2 [1]; [19]): 47.5 °C | inhibition of MMP-2 enzymatic activity (Fig 10B) (MMP-2 [2]; peptides at 1 µM, 50 µM and 100 µM, one-way ANOVA vs control): not statistically significant

COc1ccc(S(=O)(=O)N(CC(=O)NO)CC(C)C)cc1 [NNGH, N-Isobutyl-N-(4-methoxyphenylsulfonyl)glycyl hydroxamic acid]
MMP-2 enzymatic activity, percent of control (MMP-2 [2]): 11.2096 and 16.193
